The nature of assay [1]: Inhibition of Very late antigen 4/vascular cell adhesion molecule 1 activity in ELISA assay, at 10 nM concentration.
Assay [2] is described as follows: Inhibition of Very late antigen 4/vascular cell adhesion molecule 1 inhibition activity in an ELISA assay.
A further assay has as its target Integrin alpha-4/beta-1 (Homo sapiens, UniProt P05556+P13612). Briefly: Inhibition of Very late antigen 4 of Ramos cell adhesion to vascular cell adhesion molecule 1. The format is cell-based.

The source of these data is ChEMBL document CHEMBL1135157, “Focused library approach for identification of new N-acylphenylalanines as VCAM/VLA-4 antagonists” (Bioorg Med Chem Lett, 2002).

Molecules are shown by their SMILES.

Chain of Integrin alpha-4/beta-1 (P05556 whole entry): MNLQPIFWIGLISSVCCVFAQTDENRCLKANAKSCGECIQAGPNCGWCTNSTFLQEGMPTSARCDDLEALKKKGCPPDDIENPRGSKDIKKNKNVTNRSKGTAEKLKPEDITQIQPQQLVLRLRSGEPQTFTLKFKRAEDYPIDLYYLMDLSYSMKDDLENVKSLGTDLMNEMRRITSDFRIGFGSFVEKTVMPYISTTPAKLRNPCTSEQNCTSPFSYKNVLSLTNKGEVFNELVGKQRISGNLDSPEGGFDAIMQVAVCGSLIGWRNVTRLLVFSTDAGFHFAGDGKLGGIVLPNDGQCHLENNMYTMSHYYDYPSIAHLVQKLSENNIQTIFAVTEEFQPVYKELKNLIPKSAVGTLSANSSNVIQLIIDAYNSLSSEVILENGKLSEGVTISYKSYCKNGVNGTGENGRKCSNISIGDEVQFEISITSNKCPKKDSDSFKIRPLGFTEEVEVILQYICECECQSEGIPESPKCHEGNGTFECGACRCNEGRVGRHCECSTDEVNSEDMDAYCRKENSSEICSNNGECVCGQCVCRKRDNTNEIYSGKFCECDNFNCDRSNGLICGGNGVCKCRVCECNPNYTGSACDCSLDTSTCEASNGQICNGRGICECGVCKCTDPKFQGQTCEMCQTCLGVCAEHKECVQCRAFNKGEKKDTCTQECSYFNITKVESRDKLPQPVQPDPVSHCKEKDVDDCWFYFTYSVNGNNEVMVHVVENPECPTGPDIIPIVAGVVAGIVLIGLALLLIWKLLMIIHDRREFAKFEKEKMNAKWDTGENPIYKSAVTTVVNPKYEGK
Chain of Integrin alpha-4/beta-1 (P13612 whole entry): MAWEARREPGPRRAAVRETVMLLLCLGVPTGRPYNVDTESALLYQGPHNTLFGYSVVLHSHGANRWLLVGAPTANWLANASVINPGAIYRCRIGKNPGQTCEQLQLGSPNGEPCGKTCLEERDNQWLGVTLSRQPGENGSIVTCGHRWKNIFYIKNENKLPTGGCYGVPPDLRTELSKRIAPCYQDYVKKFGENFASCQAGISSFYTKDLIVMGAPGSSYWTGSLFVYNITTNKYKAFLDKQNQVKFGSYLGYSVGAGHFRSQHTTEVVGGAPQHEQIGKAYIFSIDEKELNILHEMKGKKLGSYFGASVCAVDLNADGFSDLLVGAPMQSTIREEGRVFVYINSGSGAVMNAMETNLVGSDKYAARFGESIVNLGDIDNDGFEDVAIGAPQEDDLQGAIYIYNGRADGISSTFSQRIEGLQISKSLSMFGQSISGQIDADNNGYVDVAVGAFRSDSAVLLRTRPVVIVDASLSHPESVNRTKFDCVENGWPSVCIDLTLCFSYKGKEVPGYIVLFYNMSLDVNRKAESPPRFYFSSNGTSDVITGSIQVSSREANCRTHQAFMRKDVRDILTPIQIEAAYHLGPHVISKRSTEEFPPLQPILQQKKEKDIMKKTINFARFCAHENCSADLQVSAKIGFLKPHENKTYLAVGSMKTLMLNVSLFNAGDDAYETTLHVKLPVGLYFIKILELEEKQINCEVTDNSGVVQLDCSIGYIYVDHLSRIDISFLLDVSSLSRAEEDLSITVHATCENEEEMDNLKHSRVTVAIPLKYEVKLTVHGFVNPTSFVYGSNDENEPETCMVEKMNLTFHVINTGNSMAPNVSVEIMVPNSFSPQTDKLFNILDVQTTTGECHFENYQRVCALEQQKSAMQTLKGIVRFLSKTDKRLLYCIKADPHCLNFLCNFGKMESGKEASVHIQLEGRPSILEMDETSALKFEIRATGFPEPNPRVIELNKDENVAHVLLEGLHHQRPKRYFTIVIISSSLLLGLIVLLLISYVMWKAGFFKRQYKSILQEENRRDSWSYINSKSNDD

Regarding `O=C(Nc1ccc(C[C@H](NC(=O)[C@@H]2CCCN2C(=O)c2ccccc2)C(=O)O)cc1)c1ccnc2ccccc12`, the inhibition in assay [1] was 18%.
Compound `O=C(Nc1ccc(C[C@H](NC(=O)C2(c3ccccc3)CCCC2)C(=O)O)cc1)c1ccccc1` yielded an IC50 in assay [2] of 23 nM.
For `Cc1cccc(C)c1C(=O)N[C@@H](Cc1ccc(NC(=O)c2c(Cl)cccc2Cl)cc1)C(=O)O`, the IC50 was 1.2 nM in assay [2] and 81 nM against Integrin alpha-4/beta-1.
On the same counts, the results for `O=C(Nc1ccc(C[C@H](NC(=O)C2(c3ccccc3)CCCC2)C(=O)O)cc1)c1ccnc2ccccc12` (stereo in doubt; 56) are 2.7 nM and 590 nM.
In assay [2], `O=C(Nc1ccc(C[C@H](NC(=O)C2(c3ccccc3)CCCC2)C(=O)O)cc1)c1ccnc2ccccc12` (stereo in doubt; 46) [listing 1 of 2 here] yielded a half-inhibitory concentration (IC50) of 3.4 nM.
The compound `O=C(N[C@@H](Cc1ccc(NC(=O)c2ccnc3ccccc23)cc1)C(=O)O)c1ccccc1[N+](=O)[O-]` came in with an IC50 in assay [2] of 4.7 nM. Also, the inhibition in assay [1] was found to be 73%.
With `Cc1cccc(C)c1C(=O)N[C@@H](Cc1ccc(NC(=O)c2ccnc3ccccc23)cc1)C(=O)O`, the concentration for half-maximal inhibition (IC50) in assay [2] was 2.5 nM. For the same compound, the inhibition in assay [1] was found to be 74%.
For `O=C(Nc1ccc(C[C@H](NC(=O)C2(c3ccc(Cl)cc3)CCCC2)C(=O)O)cc1)c1ccnc2ccccc12`, in assay [2], the IC50 was found to be 6.4 nM. Also, the inhibition in assay [1] is 53%.
Regarding `O=C(Nc1ccc(C[C@H](NC(=O)C23CC4CC(CC(C4)C2)C3)C(=O)O)cc1)c1ccnc2ccccc12`, the IC50 in assay [2] is 2.4 nM. Besides, the inhibition in assay [1] stood at 72%.
For the compound `O=C(Nc1ccc(C[C@H](NC(=O)C2(c3ccccc3)CCCC2)C(=O)O)cc1)c1nccc2ccccc12`, the figures for the 50% inhibitory concentration (IC50) (in assay [2]; against Integrin alpha-4/beta-1) were 9.8 nM and 1300 nM, respectively.
Consider `O=C(N[C@@H](Cc1ccc(NC(=O)c2ccnc3ccccc23)cc1)C(=O)O)c1ccccc1Cl`, for which 2.9 nM corresponded to half-maximal inhibition in assay [2] (IC50). In addition, the inhibition in assay [1] turned out to be 68%.
`CC1(C(=O)N[C@@H](Cc2ccc(NC(=O)c3ccnc4ccccc34)cc2)C(=O)O)CC1(Cl)Cl` (some centres undefined) returned an IC50 in assay [2] of 3 nM. The inhibition in assay [1] was 69%.
In turn, `CC(=O)N1CCC[C@H]1C(=O)N[C@@H](Cc1ccc(NC(=O)c2ccnc3ccccc23)cc1)C(=O)O` displayed an IC50 in assay [2] of 2 nM. The inhibition in assay [1] worked out at 61%.
As to `O=C(Nc1ccc(C[C@H](NC(=O)[C@H]2CCC(=O)N2Cc2ccccc2)C(=O)O)cc1)c1c(Cl)cccc1Cl`, the IC50 in assay [2] stood at 0.37 nM; against Integrin alpha-4/beta-1 it was 12 nM.
Take `O=C(Nc1ccc(C[C@H](NC(=O)C2CCC2)C(=O)O)cc1)c1ccnc2ccccc12`: the inhibition in assay [1] worked out at 17%.
Regarding `CC1(C)C(C(=O)N[C@@H](Cc2ccc(NC(=O)c3ccnc4ccccc34)cc2)C(=O)O)C1(C)C`, in assay [1], the inhibition came to 33%.
Regarding `O=C(Nc1ccc(C[C@H](NC(=O)C2(c3ccccc3)CCCC2)C(=O)O)cc1)c1c(Cl)cccc1Cl`, the results for the IC50 (in assay [2]; on Integrin alpha-4/beta-1) were 1.7 nM and 98 nM, respectively.
In assay [2], `COc1ccc(C2(C(=O)N[C@@H](Cc3ccc(NC(=O)c4ccnc5ccccc45)cc3)C(=O)O)CCCCC2)cc1` yielded an IC50 of 1.2 nM. For the same compound, the inhibition in assay [1] came out at 77%.
In turn, `O=C(Nc1ccc(C[C@H](NC(=O)C2CCCC2)C(=O)O)cc1)c1ccnc2ccccc12` returned an inhibition in assay [1] of 25%.
`O=C(Nc1ccc(C[C@H](NC(=O)C2(c3ccccc3)CCCC2)C(=O)O)cc1)c1cccnc1Oc1ccccc1`: the IC50 turned out to be 6.1 nM in assay [2] and 2400 nM against Integrin alpha-4/beta-1.
In assay [2], `O=C(Nc1ccc(C[C@H](NC(=O)C2(c3ccccc3)CCCCC2)C(=O)O)cc1)c1ccnc2ccccc12` registered an IC50 of 5.6 nM. The same compound came in with an inhibition in assay [1] of 67%.
The compound `O=C(CCc1ccccc1)N[C@@H](Cc1ccc(NC(=O)c2ccnc3ccccc23)cc1)C(=O)O` came in with an inhibition in assay [1] of 12%.
As for `O=C(Nc1ccc(C[C@H](NC(=O)[C@@H]2CCCN2C(=O)CCc2ccccc2)C(=O)O)cc1)c1ccnc2ccccc12`, inhibition in assay [2] was half-maximal at 2.1 nM (IC50). The same compound returned an inhibition in assay [1] of 65%.
In turn, `O=C(Nc1ccc(C[C@H](NC(=O)C2CC2)C(=O)O)cc1)c1ccnc2ccccc12` came in with an inhibition in assay [1] of 12%.
Take `N#CC1(C(=O)N[C@@H](Cc2ccc(NC(=O)c3ccnc4ccccc34)cc2)C(=O)O)CCCC1`: the midpoint of inhibition in assay [2], the IC50, lay at 7.6 nM. In addition, the inhibition in assay [1] amounted to 64%.
In the case of `O=C(Nc1ccc(C[C@H](NC(=O)C2CCCCC2)C(=O)O)cc1)c1ccnc2ccccc12`, the inhibition in assay [1] is 37%.
`O=C(N[C@@H](Cc1ccc(NC(=O)c2ccnc3ccccc23)cc1)C(=O)O)c1ccccc1Br` yielded an IC50 in assay [2] of 2.2 nM. The compound further showed an inhibition in assay [1] of 81%.
Compound `Cc1cc(C)c(C(=O)N[C@@H](Cc2ccc(NC(=O)c3ccnc4ccccc34)cc2)C(=O)O)c(C)c1` yielded an inhibition in assay [1] of 45%.
As for `Cc1ccc(C2(C(=O)N[C@@H](Cc3ccc(NC(=O)c4ccnc5ccccc45)cc3)C(=O)O)CCCC2)cc1`, the half-maximal inhibitory concentration (IC50) in assay [2] amounted to 9.1 nM. Moreover, the inhibition in assay [1] turned out to be 63%.
In assay [2], `CC(C)C(C(=O)N[C@@H](Cc1ccc(NC(=O)c2ccnc3ccccc23)cc1)C(=O)O)c1ccccc1` (some centres undefined) yielded an IC50 of 4.6 nM. The inhibition in assay [1] is 73%.
`CCCCC(C)(CC)C(=O)N[C@@H](Cc1ccc(NC(=O)c2ccnc3ccccc23)cc1)C(=O)O` (some centres undefined) came in with a concentration for half-maximal inhibition (IC50) in assay [2] of 8.2 nM. Moreover, the inhibition in assay [1] was 49%.
In assay [2], `O=C(Nc1ccc(C[C@H](NC(=O)C2(c3ccccc3)CCCC2)C(=O)O)cc1)c1ccccc1C(F)(F)F` returned a half-inhibitory concentration (IC50) of 10 nM. This lies in the double-digit nanomolar range.
For `O=C(Nc1ccc(C[C@H](NC(=O)C2(c3ccccc3)CCCC2)C(=O)O)cc1)c1ccnc2ccccc12` (stereo in doubt; 46) [listing 2 of 2 here], the inhibition in assay [1] was 68%.
With `Cc1noc(C)c1C(=O)N[C@@H](Cc1ccc(NC(=O)c2ccnc3ccccc23)cc1)C(=O)O`, the inhibition in assay [1] stood at 46%.
`CCC(C)(C)C(=O)N[C@@H](Cc1ccc(NC(=O)c2ccnc3ccccc23)cc1)C(=O)O`: in assay [1], the inhibition came out at 30%.
Turning to `C[C@H]1CC[C@@](C)(C(=O)N[C@@H](Cc2ccc(NC(=O)c3ccnc4ccccc34)cc2)C(=O)O)C1(C)C`, half-maximal inhibition in assay [2] (IC50) required 2.3 nM. Besides, the inhibition in assay [1] worked out at 51%.
In assay [1], `CC(=O)N1CSC[C@H]1C(=O)N[C@@H](Cc1ccc(NC(=O)c2ccnc3ccccc23)cc1)C(=O)O` gave an inhibition of 37%.
Regarding `CCC(C(=O)N[C@@H](Cc1ccc(NC(=O)c2ccnc3ccccc23)cc1)C(=O)O)c1ccccc1` (some centres undefined), inhibition in assay [2] was half-maximal at 5.8 nM (IC50). In assay [1], this compound registered an inhibition of 49%.
For the compound `CC(C)(C)C(=O)N[C@@H](Cc1ccc(NC(=O)c2ccnc3ccccc23)cc1)C(=O)O`, the inhibition in assay [1] worked out at 23%.
Consider `COc1ccc(C2(C(=O)N[C@@H](Cc3ccc(NC(=O)c4ccnc5ccccc45)cc3)C(=O)O)CCCC2)cc1`, for which 1.4 nM corresponded to half-maximal inhibition in assay [2] (IC50). In addition, the inhibition in assay [1] stood at 73%.
In the case of `O=C(Nc1ccc(C[C@H](NC(=O)[C@@H]2CSCN2C(=O)c2ccccc2)C(=O)O)cc1)c1ccnc2ccccc12`, the inhibition in assay [1] was 24%.
`Cc1cccc(C(=O)N[C@@H](Cc2ccc(NC(=O)c3ccnc4ccccc34)cc2)C(=O)O)c1C` gave an inhibition in assay [1] of 31%.
For the compound `O=C(N[C@@H](Cc1ccc(NC(=O)c2ccnc3ccccc23)cc1)C(=O)O)c1c(F)cccc1F`, the half-maximal inhibitory concentration (IC50) in assay [2] was found to be 1.7 nM. Besides, the inhibition in assay [1] amounted to 64%.
`O=C(Nc1ccc(C[C@H](NC(=O)[C@@H]2CSCN2C(=O)CCc2ccccc2)C(=O)O)cc1)c1ccnc2ccccc12`: the midpoint of inhibition in assay [2], the IC50, lay at 1.9 nM. This compound displayed an inhibition in assay [1] of 53%.
The compound `O=C(Nc1ccc(C[C@H](NC(=O)C2CCc3ccccc3C2)C(=O)O)cc1)c1ccnc2ccccc12` (some centres undefined) gave an inhibition in assay [1] of 15%.
`O=C(N[C@@H](Cc1ccc(NC(=O)c2ccnc3ccccc23)cc1)C(=O)O)c1ccccc1F` showed an inhibition in assay [1] of 42%.
Turning to `O=C(N[C@@H](Cc1ccc(NC(=O)c2ccnc3ccccc23)cc1)C(=O)O)c1ccccc1`, in assay [1], the inhibition was 19%.
Compound `O=C(N[C@@H](Cc1ccc(NC(=O)c2ccnc3ccccc23)cc1)C(=O)O)c1cccnc1Cl` registered an IC50 in assay [2] of 6.6 nM. The inhibition in assay [1] was 61%.
With `O=C(N[C@@H](Cc1ccc(NC(=O)c2ccnc3ccccc23)cc1)C(=O)O)C(=O)c1ccccc1`, the inhibition in assay [1] was 13%.
In turn, `O=C(Nc1ccc(C[C@H](NC(=O)C2(c3ccccc3)CC2)C(=O)O)cc1)c1ccnc2ccccc12` showed an inhibition in assay [1] of 19%.
In assay [2], `CC1(C(=O)N[C@@H](Cc2ccc(NC(=O)c3ccnc4ccccc34)cc2)C(=O)O)CCCCC1` showed an IC50 of 7 nM. The compound also had an inhibition in assay [1] of 49%.
